Experimental findings from ChEMBL document CHEMBL1140260, “Synthesis and SAR of diazepine and thiazepine TACE and MMP inhibitors” (Bioorg Med Chem Lett, 2005) are described below.

For series [1], the system named is THP-1. The series can be described thus: Percent inhibition against LPS stimulated THP-1 cellular assay at 3 uM. The note with it: Homo sapiens. Format: functional.
The next series addresses Collagenase 3 (Homo sapiens, UniProt P45452).
Series [2] concerns the target Disintegrin and metalloproteinase domain-containing protein 17 (Homo sapiens, UniProt P78536). The series can be described thus: Inhibitory concentration against TNF-alpha converting enzyme at 1 uM.
Series [3] has as its system Mus musculus. Put plainly: Percent inhibition ofTNF-alpha release 1 hr after oral dosing at 50 mpk. Format: functional.
For series [4], the system named is Mus musculus. Put plainly: Percent inhibition ofTNF-alpha release 6 hr after oral dosing at 50 mpk. Type of series: functional.
Another series has as its target T1, Interstitial collagenase (Homo sapiens, UniProt P03956).
T1 sequence (P03956 whole entry): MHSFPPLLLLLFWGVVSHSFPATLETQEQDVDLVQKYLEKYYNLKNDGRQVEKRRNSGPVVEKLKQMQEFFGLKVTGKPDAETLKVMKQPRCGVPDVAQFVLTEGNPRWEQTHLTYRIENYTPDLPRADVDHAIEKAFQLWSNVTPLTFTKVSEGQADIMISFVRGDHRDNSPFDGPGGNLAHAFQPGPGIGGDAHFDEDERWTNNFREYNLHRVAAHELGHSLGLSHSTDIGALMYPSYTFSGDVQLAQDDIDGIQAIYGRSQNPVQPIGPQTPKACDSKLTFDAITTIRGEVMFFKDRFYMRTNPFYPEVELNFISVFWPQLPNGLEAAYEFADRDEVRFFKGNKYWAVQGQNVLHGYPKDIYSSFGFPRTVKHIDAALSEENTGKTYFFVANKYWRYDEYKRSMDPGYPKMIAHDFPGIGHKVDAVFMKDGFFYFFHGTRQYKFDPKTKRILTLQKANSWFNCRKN
The series can be described thus: (§1) Inhibitory concentration against matrix metalloprotease-1 at 1 uM.

In series [5] the test system is THP-1. The series can be described thus: Percent inhibition against LPS stimulated THP-1 cellular assay at 1 uM. The conditions noted are these: Homo sapiens. Format: functional.
Series [6] deals with Mus musculus. The series can be described thus: Percent inhibition ofTNF-alpha release 1 hr after oral dosing at 25 mpk. Type of series: functional.
For series [7], the target named is T2, Interstitial collagenase (Homo sapiens) (UniProt P03956).
T2 sequence (whole entry): T1 sequence (P03956 whole entry)
The series can be described thus: Percent inhibition against matrix metalloprotease-1 at 1 uM.

Series [8] relates to Mus musculus. The series can be described thus: Percent reduction induced by compound in the mouse collagen induced arthritis model after 35 days of peroral dosing at 20 mpk, twice daily. Type of series: functional.
Series [9] is described as follows: Volume of distribution of compound in mice. Format: ADME, organism-based. The note with it: mouse, in vivo.
The subject of series [10] is Mus musculus. The series can be described thus: Oral bioavailability of compound in mice. Type of series: functional, organism-based.
Series [11] concerns Mus musculus. Put plainly: Half life of compound in mice after i.v. administration at 5 mg/kg. Type of series: functional, organism-based. Further details: dose 5 mg/kg.
The subject of series [12] is Mus musculus. The series can be described thus: Half life of compound in mice after i.p. administration at 10 mg/kg. Further details: dose 10 mg/kg. Format: functional, organism-based.
The species named for series [13] is Mus musculus. Put plainly: Plasma clearance of compound in mice plasma. Type of series: functional, organism-based.
Series [14] deals with Mus musculus. The series can be described thus: Half life of compound in mice after p.o. administration at 50 mg/kg.
Series [15] concerns THP-1. Put plainly: Percent inhibition against LPS stimulated THP-1 cell assay at 3 uM. Type of series: functional. The conditions noted are these: Homo sapiens.
The target in series [16] is T2, Interstitial collagenase (Homo sapiens). Described as §1.

Chain of Disintegrin and metalloproteinase domain-containing protein 17 (P78536 whole entry, the tested form may be a part): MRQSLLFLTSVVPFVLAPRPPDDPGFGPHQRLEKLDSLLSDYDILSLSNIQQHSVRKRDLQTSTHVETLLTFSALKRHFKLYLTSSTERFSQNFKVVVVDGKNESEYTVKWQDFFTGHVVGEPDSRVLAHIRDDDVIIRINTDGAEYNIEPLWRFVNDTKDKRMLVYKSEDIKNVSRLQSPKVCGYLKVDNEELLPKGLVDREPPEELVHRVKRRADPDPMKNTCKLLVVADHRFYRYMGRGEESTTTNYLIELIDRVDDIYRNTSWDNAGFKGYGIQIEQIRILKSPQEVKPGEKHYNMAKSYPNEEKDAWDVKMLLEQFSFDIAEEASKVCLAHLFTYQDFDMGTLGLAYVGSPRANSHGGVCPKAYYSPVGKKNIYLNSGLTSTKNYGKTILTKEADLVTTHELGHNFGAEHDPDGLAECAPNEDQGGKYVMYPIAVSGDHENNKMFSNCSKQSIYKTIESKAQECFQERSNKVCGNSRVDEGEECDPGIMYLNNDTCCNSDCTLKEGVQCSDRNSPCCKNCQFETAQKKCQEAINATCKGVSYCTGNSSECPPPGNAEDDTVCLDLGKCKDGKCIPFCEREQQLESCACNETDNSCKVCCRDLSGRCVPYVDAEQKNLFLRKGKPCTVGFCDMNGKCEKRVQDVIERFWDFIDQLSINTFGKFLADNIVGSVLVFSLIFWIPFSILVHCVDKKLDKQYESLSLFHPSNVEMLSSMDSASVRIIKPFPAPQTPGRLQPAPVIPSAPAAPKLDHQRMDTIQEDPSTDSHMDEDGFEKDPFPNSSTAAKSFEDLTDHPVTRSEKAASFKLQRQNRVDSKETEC
Description for Collagenase 3: Inhibitory concentration against Matrix metalloprotease-13 at 1 uM

As for `CC#CCOc1ccc(S(=O)(=O)N2CCCN(C(=O)c3cccs3)CC2C(=O)NO)cc1` (stereo not drawn), the inhibition (as a rule, the relative decrease from the control value, in per cent) at 3 µM with THP-1 [1] came to 41%. Moreover, the IC50 (as a rule, the concentration that gives 50% inhibition) against Collagenase 3 came to 142 nM; in series [2], 10 nM.

Turning to `CC#CCOc1ccc(S(=O)(=O)N2CCN(Cc3ccccc3)CCC2C(=O)NO)cc1` (stereo not drawn), the values for the inhibition in vivo at 50 mg/kg in the series with Mus musculus [3] and in the series on Mus musculus [4] were 17% and 0%, respectively.

`CC#CCOc1ccc(S(=O)(=O)N2CCCN(Cc3ccccc3)CC2C(=O)NO)cc1` (stereo not drawn): the inhibition at 3 µM with THP-1 [1] is 41%. The IC50 against Interstitial collagenase amounted to 212 nM; against Collagenase 3, 52 nM; in [2], 61 nM.

For `CC#CCOc1ccc(S(=O)(=O)N2CCS(=O)(=O)CCC2C(=O)NO)cc1` (stereo not drawn), 50 mg/kg produced 94% inhibition in vivo with Mus musculus [3]. The inhibition at 3 µM in the series with THP-1 [1] came to 92%. Also, the 50% inhibitory concentration (IC50) against Interstitial collagenase was 114 nM; against Collagenase 3, 8 nM; in series [2], 19 nM.

With `CC#CCOc1ccc(S(=O)(=O)N2CCCS(=O)(=O)CC2C(=O)NO)cc1` (stereo not drawn), in the series with Mus musculus [3], testing at 50 mg/kg gave an inhibition in vivo of 77%. The IC50 against Interstitial collagenase was 334 nM; against Collagenase 3 it was 311 nM; in [2], 28 nM.

The molecule `CC#CCOc1ccc(S(=O)(=O)N2CCN(C(=O)CC)CCC2C(=O)NO)cc1` (stereo not drawn) had an inhibition at 1 µM with THP-1 [5] of 63%. In addition, the IC50 on Interstitial collagenase was found to be 207 nM; at Collagenase 3, 20 nM; in [2] it was 19 nM.

On to `CC#CCOc1ccc(S(=O)(=O)N2CCCN(S(C)(=O)=O)CC2C(=O)NO)cc1` (stereo not drawn), for which the inhibition in vivo (usually the percentage by which the read-out fell short of the control) at 25 mg/kg in the series with Mus musculus [6] is 35%. The molecule also yielded an inhibition at 3 µM with THP-1 [1] of 71%. Further, in series [7], the inhibition was 40%. The IC50 amounted to 128 nM against Collagenase 3 and 5 nM in series [2].

The molecule `CC#CCOc1ccc(S(=O)(=O)N2CCN(CC)CCC2C(=O)NO)cc1` (stereo not drawn) displayed an inhibition at 1 µM in the series with THP-1 [5] of 57%. Moreover, the half-inhibitory concentration (IC50) against Interstitial collagenase stood at 285 nM; on Collagenase 3, 17 nM; in series [2], 37 nM.

Molecule `CC#CCOc1ccc(S(=O)(=O)N2CCCN(C(=O)CN)CC2C(=O)NO)cc1` (stereo not drawn) yielded an inhibition at 3 µM in the series with THP-1 [1] of 62%. The results for the IC50 (against Interstitial collagenase; against Collagenase 3; in series [2]) were 3030 nM, 1060 nM and 12 nM, respectively.

Turning to `CC#CCOc1ccc(S(=O)(=O)N2CCSCCC2C(=O)NO)cc1` (stereo not drawn), the inhibition in vivo at 50 mg/kg was determined as 70% in the series with Mus musculus [3] and 41% in the series with Mus musculus [4]. Moreover, the IC50 worked out at 171 nM against Interstitial collagenase and 11 nM on Collagenase 3.

Regarding `CC#CCOc1ccc(S(=O)(=O)N2CCN(C(=O)c3ccccc3)CCC2C(=O)NO)cc1` (stereo not drawn), the figures for the inhibition in vivo at 50 mg/kg with Mus musculus [3] and in the series on Mus musculus [4] were 35% and 0%, respectively.

In the case of `CC#CCOc1ccc(S(=O)(=O)N2CCNCCC2C(=O)NO)cc1` (stereo not drawn), the Reduction with Mus musculus [8] turned out to be 56%. Also, the results for the inhibition in vivo at 50 mg/kg with Mus musculus [3] and in the series with Mus musculus [4] were 97% and 62%, respectively. This molecule also had an IC50 at Collagenase 3 of 32 nM. Also, the Vd (as a rule, a proportionality between amount in the body and measured concentration, not a real space) in series [9] was determined as 2.49 L/kg. Moreover, in the series with Mus musculus [10], the bioavailability was 18%. Further, the T1/2 in the series with Mus musculus [11] was 1.43 h; in the series with Mus musculus [12], 2.64 h; with Mus musculus [14] it was 0.86 h. The CL (mL.min-1.kg-1) in the series listed under Mus musculus [13] came out at 64.3.

The molecule `CC#CCOc1ccc(S(=O)(=O)N2CCN(C(=O)C(C)C)CCC2C(=O)NO)cc1` (stereo not drawn) displayed an inhibition at 3 µM with THP-1 [1] of 95%. Besides, the half-maximal inhibitory concentration (IC50) on Interstitial collagenase turned out to be 142 nM; against Collagenase 3, 9 nM; in [2], 23 nM.

In the series on THP-1 [1], `CC#CCOc1ccc(S(=O)(=O)N2CCN(C(=O)COC)CCC2C(=O)NO)cc1` (stereo not drawn) displayed an inhibition at 3 µM of 79%. In addition, the figures for the IC50 (at Interstitial collagenase; at Collagenase 3; in [2]) were 277 nM, 31 nM and 15 nM, respectively.

As to `CC#CCOc1ccc(S(=O)(=O)N2CCCN(S(=O)(=O)CCC)CC2C(=O)NO)cc1` (stereo not drawn), in the series on Mus musculus [6], the inhibition in vivo at 25 mg/kg was found to be 0%. The inhibition at 3 µM with THP-1 [1] came to 74%. Besides, the IC50 amounted to 1140 nM against Interstitial collagenase, 140 nM against Collagenase 3 and 30 nM in series [2].

For `CC#CCOc1ccc(S(=O)(=O)N2CCN(C)CCC2C(=O)NO)cc1` (stereo not drawn), the inhibition in vivo at 50 mg/kg with Mus musculus [3] stood at 32%; in the series on Mus musculus [4], 39%.

In turn, `CC#CCOc1ccc(S(=O)(=O)N2CCCN(C(=O)NCCCCCC)CC2C(=O)NO)cc1` (stereo not drawn) yielded an inhibition at 3 µM in the series on THP-1 [1] of 36%. Besides, in [7], the inhibition was determined as 34%. Further, the IC50 was 307 nM against Collagenase 3 and 14 nM in [2].

Turning to `CC#CCOc1ccc(S(=O)(=O)N2CCCSCC2C(=O)NO)cc1` (stereo not drawn), the inhibition in vivo at 50 mg/kg in the series with Mus musculus [3] stood at 24%. Further, the inhibition at 3 µM in the series with THP-1 [1] was 80%. Besides, the IC50 at Interstitial collagenase is 408 nM; on Collagenase 3, 36 nM; in series [2], 20 nM.

As for `CC#CCOc1ccc(S(=O)(=O)N2CCCN(C(=O)CCCN(C)C)CC2C(=O)NO)cc1` (stereo not drawn), testing at 3 µM with THP-1 [1] gave an inhibition of 33%. The inhibition in series [7] is 19%. For the same molecule, the IC50 is 395 nM against Collagenase 3 and 75 nM in series [2].

As to `CC#CCOc1ccc(S(=O)(=O)N2CCCNCC2C(=O)NO)cc1` (stereo not drawn), the inhibition in vivo at 25 mg/kg with Mus musculus [6] was 4%. This molecule also displayed an inhibition at 3 µM with THP-1 [1] of 43%. The IC50 worked out at 576 nM at Interstitial collagenase, 225 nM on Collagenase 3 and 11 nM in series [2].

The molecule `CC#CCOc1ccc(S(=O)(=O)N2CCCN(C(=O)OC(C)(C)C)CC2C(=O)NO)cc1` (stereo not drawn) registered an inhibition in [7] of 26%. In the series on THP-1 [15], the inhibition at 3 µM amounted to 13%. Moreover, the IC50 at Collagenase 3 was found to be 363 nM; in series [2], 35 nM.

`CC#CCOc1ccc(S(=O)(=O)N2CCN(C(=O)OC(C)(C)C)CCC2C(=O)NO)cc1` (stereo not drawn): the inhibition in vivo at 50 mg/kg was found to be 88% with Mus musculus [3] and 43% in the series with Mus musculus [4].

In the series on Mus musculus [6], `CC#CCOc1ccc(S(=O)(=O)N2CCCN(C(C)=O)CC2C(=O)NO)cc1` (stereo not drawn) displayed an inhibition in vivo at 25 mg/kg of 10%. Also, in the series with THP-1 [1], the inhibition at 3 µM amounted to 74%. Besides, the IC50 on Collagenase 3 was 305 nM; in series [2], 4 nM.

Regarding `CC#CCOc1ccc(S(=O)(=O)N2CCCN(S(=O)(=O)c3ccccc3)CC2C(=O)NO)cc1` (stereo not drawn), in the series with Mus musculus [6], testing at 25 mg/kg gave an inhibition in vivo of 46%. In the series with THP-1 [1], the inhibition at 3 µM turned out to be 62%. The molecule further had an inhibition in series [7] of 39%. Also, the IC50 came out at 88 nM against Collagenase 3 and 68 nM in series [2].

For `CC#CCOc1ccc(S(=O)(=O)N2CCCN(C(=O)CNC(=O)OC(C)(C)C)CC2C(=O)NO)cc1` (stereo not drawn), testing at 25 mg/kg in the series with Mus musculus [6] gave an inhibition in vivo of 68%. This molecule also showed an inhibition at 3 µM with THP-1 [1] of 71%. Also, the results for the IC50 (against Interstitial collagenase; against Collagenase 3; in series [2]) were 4580 nM, 446 nM and 7 nM, respectively.

Regarding `CC#CCOc1ccc(S(=O)(=O)N2CCCN(C)CC2C(=O)NO)cc1` (stereo not drawn), in series [16], the inhibition is 36%. Further, testing at 3 µM in the series with THP-1 [1] gave an inhibition of 42%. The half-inhibitory concentration (IC50) against Collagenase 3 was determined as 180 nM; in series [2], 24 nM.
